ChEMBL document CHEMBL4325853, “Design, synthesis and antibacterial evaluation of 2,4-disubstituted-6-thiophenyl-pyrimidines” (Eur J Med Chem, 2019)
Converted amounts (≈) assume the structure as drawn.

Tests used:
Assay type in all cases: functional
Bacillus subtilis = assay: Antibacterial activity against Bacillus subtilis 168 after 18 hrs by broth microdilution method; conditions: subsp. subtilis str. 168, 18 h
Staphylococcus aureus [1] = assay: Antibacterial activity against Staphylococcus aureus ATCC 29213 after 18 hrs by broth microdilution method; conditions: ATCC 29213, 18 h
Enterococcus faecium [2] = assay: Antibacterial activity against Enterococcus faecium ATCC 49624 after 18 hrs by broth microdilution method; conditions: ATCC 49624, 18 h
Enterococcus faecium [3] = assay: Potency index, ratio of berberine MIC to test compound MIC for Enterococcus faecium ATCC 49624
Enterococcus faecalis [4] = assay: Potency index, ratio of berberine MIC to test compound MIC for Enterococcus faecalis ATCC 29212
[5] = system: Staphylococcus epidermidis; assay: Potency index, ratio of berberine MIC to test compound MIC for Staphylococcus epidermidis ATCC 12228
Staphylococcus aureus [6] = assay: Antibacterial activity against methicillin-resistant Staphylococcus aureus ATCC BAA1720 after 18 hrs by broth microdilution method; conditions: ATCC BAA1720, 18 h
Staphylococcus aureus [7] = assay: Antibacterial activity against methicillin-resistant Staphylococcus aureus ATCC 43300 after 18 hrs by broth microdilution method; conditions: ATCC 43300, 18 h
Enterococcus faecalis [8] = assay: Antibacterial activity against vancomycin-resistant Enterococcus faecalis ATCC 51575 after 18 hrs by broth microdilution method; conditions: ATCC 51575, 18 h
Staphylococcus aureus [9] = assay: Potency index, ratio of methicillin MIC to test compound MIC for methicillin-resistant Staphylococcus aureus ATCC 33592
Staphylococcus aureus [10] = assay: Antibacterial activity against methicillin-resistant Staphylococcus aureus isolate 7917 after 18 hrs by broth microdilution method; conditions: isolate 7917, 18 h
Staphylococcus aureus [11] = assay: Antibacterial activity against methicillin-resistant Staphylococcus aureus isolate 3123 after 18 hrs by broth microdilution method; conditions: isolate 3123, 18 h
Staphylococcus aureus [12] = assay: Antibacterial activity against methicillin-resistant Staphylococcus aureus isolate 7807 after 18 hrs by broth microdilution method; conditions: isolate 7807, 18 h
Staphylococcus aureus [13] = assay: Antibacterial activity against methicillin-resistant Staphylococcus aureus isolate 2491 after 18 hrs by broth microdilution method; conditions: isolate 2491, 18 h
Staphylococcus aureus [14] = assay: Antibacterial activity against methicillin-resistant Staphylococcus aureus isolate 2931 after 18 hrs by broth microdilution method; conditions: isolate 2931, 18 h
Staphylococcus aureus [15] = assay: Antibacterial activity against methicillin-resistant Staphylococcus aureus isolate 7863 after 18 hrs by broth microdilution method; conditions: isolate 7863, 18 h
Staphylococcus aureus [16] = assay: Antibacterial activity against methicillin-resistant Staphylococcus aureus isolate 7947 after 18 hrs by broth microdilution method; conditions: isolate 7947, 18 h
Staphylococcus aureus [17] = assay: Antibacterial activity against methicillin-resistant Staphylococcus aureus isolate 7813 after 18 hrs by broth microdilution method; conditions: isolate 7813, 18 h
Staphylococcus aureus [18] = assay: Antibacterial activity against methicillin-resistant Staphylococcus aureus isolate 7864 after 18 hrs by broth microdilution method; conditions: isolate 7864, 18 h
Staphylococcus aureus [19] = assay: Antibacterial activity against methicillin-resistant Staphylococcus aureus isolate 1220 after 18 hrs by broth microdilution method; conditions: isolate 1220, 18 h
Staphylococcus aureus [20] = assay: Antibacterial activity against methicillin-resistant Staphylococcus aureus isolate 8179 after 18 hrs by broth microdilution method; conditions: isolate 8179, 18 h
Staphylococcus aureus [21] = assay: Antibacterial activity against methicillin-resistant Staphylococcus aureus isolate 4955 after 18 hrs by broth microdilution method; conditions: isolate 4955, 18 h
Staphylococcus aureus [22] = assay: Antibacterial activity against methicillin-resistant Staphylococcus aureus isolate 7844 after 18 hrs by broth microdilution method; conditions: isolate 7844, 18 h
Staphylococcus aureus [23] = assay: Antibacterial activity against methicillin-resistant Staphylococcus aureus isolate 5239 after 18 hrs by broth microdilution method; conditions: isolate 5239, 18 h
Staphylococcus aureus [24] = assay: Antibacterial activity against methicillin-resistant Staphylococcus aureus isolate 2350 after 18 hrs by broth microdilution method; conditions: isolate 2350, 18 h
Staphylococcus aureus [25] = assay: Antibacterial activity against methicillin-resistant Staphylococcus aureus isolate 7664 after 18 hrs by broth microdilution method; conditions: isolate 7664, 18 h
Staphylococcus aureus [26] = assay: Antibacterial activity against methicillin-resistant Staphylococcus aureus isolate 4548 after 18 hrs by broth microdilution method; conditions: isolate 4548, 18 h
Staphylococcus aureus [27] = assay: Antibacterial activity against methicillin-resistant Staphylococcus aureus isolate 5056 after 18 hrs by broth microdilution method; conditions: isolate 5056, 18 h
Staphylococcus aureus [28] = assay: Antibacterial activity against methicillin-resistant Staphylococcus aureus isolate 7183 after 18 hrs by broth microdilution method; conditions: isolate 7183, 18 h
Enterococcus faecalis [29] = assay: Bactericidal activity against vancomycin-resistant Enterococcus faecalis ATCC 700221 after 18 hrs by broth microdilution method; conditions: ATCC 700221, 18 h
Staphylococcus aureus [30] = assay: Ratio of MBC to MIC for methicillin-resistant Staphylococcus aureus ATCC 43300

| SMILES | MIC90 (Bacillus subtilis) [µg/mL] | MIC90 (Staphylococcus aureus [1]) [µg/mL] | MIC90 (Enterococcus faecium [2]) [µg/mL] | MIC90 (Staphylococcus aureus [6]) [µg/mL] | MIC90 (Staphylococcus aureus [7]) [µg/mL] | MIC90 (Enterococcus faecalis [8]) [µg/mL] | MIC90 (Staphylococcus aureus [10]) [µg/mL] | MIC90 (Staphylococcus aureus [11]) [µg/mL] | MIC90 (Staphylococcus aureus [12]) [µg/mL] | MIC90 (Staphylococcus aureus [13]) [µg/mL] | MIC90 (Staphylococcus aureus [14]) [µg/mL] | MIC90 (Staphylococcus aureus [15]) [µg/mL] | MIC90 (Staphylococcus aureus [16]) [µg/mL] | MIC90 (Staphylococcus aureus [17]) [µg/mL] | MIC90 (Staphylococcus aureus [18]) [µg/mL] | MIC90 (Staphylococcus aureus [19]) [µg/mL] | MIC90 (Staphylococcus aureus [20]) [µg/mL] | MIC90 (Staphylococcus aureus [21]) [µg/mL] | MIC90 (Staphylococcus aureus [22]) [µg/mL] | MIC90 (Staphylococcus aureus [23]) [µg/mL] | also measured |
| --- | --- | --- | --- | --- | --- | --- | --- | --- | --- | --- | --- | --- | --- | --- | --- | --- | --- | --- | --- | --- | --- |
| FC(F)(F)c1ccc(CN2CCCN(CCc3cc(-c4cccs4)nc(-c4ccncc4)n3)CC2)cc1 | 4 (≈ 7.64 µM) | 4 (≈ 7.64 µM) | 4 (≈ 7.64 µM) | 4 (≈ 7.64 µM) | 4 (≈ 7.64 µM) | 4 (≈ 7.64 µM) | 4 (≈ 7.64 µM) | 4 (≈ 7.64 µM) | 4 (≈ 7.64 µM) | 8 (≈ 15.3 µM) | 4 (≈ 7.64 µM) | 4 (≈ 7.64 µM) | 4 (≈ 7.64 µM) | 8 (≈ 15.3 µM) | 4 (≈ 7.64 µM) | 4 (≈ 7.64 µM) | 4 (≈ 7.64 µM) | 4 (≈ 7.64 µM) | 4 (≈ 7.64 µM) | 4 (≈ 7.64 µM) | Ratio (Enterococcus faecium [3]): 50 - 100; Ratio (Enterococcus faecalis [4]): 50 - 100; Ratio [5]: 50 - 100; Ratio (Staphylococcus aureus [9]): >100; MIC90 (Staphylococcus aureus [24]): 4 µg/mL (≈ 7.64 µM); MIC90 (Staphylococcus aureus [25]): 4 µg/mL (≈ 7.64 µM); MIC90 (Staphylococcus aureus [26]): 4 µg/mL (≈ 7.64 µM); MIC90 (Staphylococcus aureus [27]): 4 µg/mL (≈ 7.64 µM); MIC90 (Staphylococcus aureus [28]): 4 µg/mL (≈ 7.64 µM); MBC (Enterococcus faecalis [29]): 8 µg/mL (≈ 15.3 µM); Ratio (Staphylococcus aureus [30]): 2 |
| CN[C@H](CC(C)C)C(=O)N[C@H]1C(=O)N[C@@H](CC(N)=O)C(=O)N[C@H]2C(=O)N[C@H]3C(=O)N[C@H](C(=O)N[C@H](C(=O)O)c4cc(O)cc(O)c4-c4cc3ccc4O)[C@H](O)c3ccc(c(Cl)c3)Oc3cc2cc(c3O[C@@H]2O[C@H](CO)[C@@H](O)[C@H](O)[C@H]2O[C@H]2C[C@](C)(N)[C@H](O)[C@H](C)O2)Oc2ccc(cc2Cl)[C@H]1O [VANCOMYCIN] | 1 (≈ 0.69 µM) | 1 (≈ 0.69 µM) | 2 (≈ 1.38 µM) | 2 (≈ 1.38 µM) | 2 (≈ 1.38 µM) | > 64 | 1 (≈ 0.69 µM) | 1 (≈ 0.69 µM) | 2 (≈ 1.38 µM) | 2 (≈ 1.38 µM) | 1 (≈ 0.69 µM) | 1 (≈ 0.69 µM) | 1 (≈ 0.69 µM) | 1 (≈ 0.69 µM) | 1 (≈ 0.69 µM) | 0.5 (≈ 0.345 µM) | 1 (≈ 0.69 µM) | 1 (≈ 0.69 µM) | 1 (≈ 0.69 µM) | 1 (≈ 0.69 µM) | MIC90 (Staphylococcus aureus [24]): 1 µg/mL (≈ 0.69 µM); MIC90 (Staphylococcus aureus [25]): 0.5 µg/mL (≈ 0.345 µM); MIC90 (Staphylococcus aureus [26]): 2 µg/mL (≈ 1.38 µM); MIC90 (Staphylococcus aureus [27]): 2 µg/mL (≈ 1.38 µM); MIC90 (Staphylococcus aureus [28]): 2 µg/mL (≈ 1.38 µM) |
